The data set concerns Human urothelial T24 cells. The data set can be described thus: WST-1 cell viability assay, 4-HC-induced loss of T24 viability. Particulars: 37.5 μM 4-HC for 4 h, WST-1 assay, n=3. Format: cell-based. As for the experimental part:
FIGS. 2A to 2D illustrate the CeNPs testing with human urothelial T24 cells in vitro. FIG. 2A illustrates that T24 cells were treated with 4-HC at concentrations of 0, 12.5, 25, 37.5, 50, 75, and 100 μM for 4 h (hours). Cell viability was examined utilizing the WST-1 assay (MK400, Takara, Mountain View, CA, USA).
FIG. 2B illustrates that 4-HC-induced loss of T24 viability was rescued by cerium oxide nanoparticle (CeNP) treatment (n=3). […] Fluorescence microscope images of the groups: (1) control group; (2) only 4-HC group: 37.5 μM 4-HC added for 4 h to induce cell oxidative stress; (3) CeNP treatment group: 5 μg/mL CeNPs were applied for 24 h before 4-h induction with 37.5 μM 4-HC; and (4) CeNP-only group: only 5 μg/mL CeNPs were applied for 24 h. […] Values are expressed as the mean±SD. Data were analyzed by one-way analysis of variance with Tukey's multiple comparisons test. *P<0.05, **P<0.01. n.s.: no statistical difference, (n=3).
Human urothelial T24 cells (#60062, BCRC, Taiwan) were cultured in 90% McCoy's 5a medium (Sigma, St. Louis, MO, USA) with 1.5 mM L-glutamine, 10% (v/v) fetal bovine serum, and 1% (v/v) PS. Cells were maintained at 37° C. in a humidified incubator containing 5% CO2 [6], and 4-HC was used to induce cellular oxidative stress. T24 cells were seeded into a 96-well plate at a density of 10^4 cells/well and incubated for 24 h until full adhesion was achieved. […]

Molecules are shown by their SMILES.

One compound from patent US12521414B2, “Method for preventing or treating urological chronic pelvic pain syndrome” (priority 2022, dated 2026) can be followed below.

Take `O=P1(N(CCCl)CCCl)NC(OO)CCO1` (stereo not shown) [4-HC, 4-hydroperoxycyclophosphamide]: the “cell viability of T24 cells” value is reported as “approximately 50%”.
